Source: patent US20250032403A1, “COMPOSITIONS FOR TREATING PERIODONTAL DISEASES” (GR Biosystems, Inc., priority 2017, published 2025)
“Also recorded” adds a separate entry of the source.

Legend:
MMP-2 = assay: Western blot of MMP-2 protein expression in LPS-induced HGF-1 cells; format: cell-based, human; settings: for MMP-2 production: HGF-1, LPS 5 μg/mL + curcumin 2.5, 5 or 10 μM, n=3, FIG. 15
Description: (§1) Human Gingival Fibroblasts (HGF-1) were purchased from ATCC (Manassas, VA) and were grown in DMEM with Glutamax, 10% FBS and Penicillin/Streptomycin (All from Gibco) and kept at 37° C. in a humidified air chamber with 5% CO2. Cells were seeded at 3×10^5 cells/flask for the experiments and then grown to confluency. Cells between 3 and 10 passages were used for all experiments.
(§2) 1,2,3,4,6-Penta-O-galloyl-β-D-glucose (purchased from Sigma-Aldrich) was dissolved in dimethylsulfoxide (DMSO) to obtain a 100 mM stock solution.
(§3) The supernatant was collected and assayed for protein concentration.
(§4) The gels were prepared by standard methods and electrophoresed for 1 hour at 150 V.
(§5) Incubation was done according to specific instructions from the manufacturer for each antibody. […] After incubation and washing with PBS-T, the membranes were incubated in the dark in blocking solution with 0.2% Tween, IRDye 800CW Goat anti-Rabbit IgG, and IRDye® 680RD Donkey anti-Mouse IgG (1:10000, LI-COR Biosciences, Lincoln, NE) for 1 hour at room temperature. The proteins were detected and visualized by fluorescence using the Licor Odyssey Classic Infrared Imaging system (LI-COR Biosciences, Lincoln, NE). Densitometry analysis of specific bands was performed with the Image Studio software provided by LI-COR Biosciences. Statistical analysis, including 1-way ANOVA with Dunnett's Multiple Comparison Test, was done using GraphPad Prism (GraphPad Software, La Jolla, CA).
Human gingival fibroblasts (HGF-1) were treated with lipopolysaccharide (LPS) from P. gingivalis to reproduce the type of inflammatory response seen in chronic periodontitis. Upon treatment with […], MMP-2 was released into the pericellular space to be activated by MMP-14. Subsequently, MMP-2 and MMP-14 activate MMP-13. […] LPS activation of MMP-2, MMP-13 and MMP-14, however, was attenuated by the administration of PGG.
(§6) HGF-1 cells were induced with LPS (5 μg/mL) to mimic the inflammatory process and Curcumin was added at different concentrations (2.5, 5 and 10 μM).

MMP-13 = assay: Western blot of MMP-13 protein expression in LPS-induced HGF-1 cells; format: cell-based, human
Description: as §1, §2, §3, §4
as §5, with “Statistical analysis, including 1-way ANOVA with Dunnett's Multiple Comparison Test, was done using GraphPad Prism (GraphPad Software, La Jolla, CA).” left out

MMP-14 = assay: Western blot of MMP-14 protein expression in LPS-induced HGF-1 cells; format: cell-based, human
Description: as §1, §2, §3, §4
as §5, with “Statistical analysis, including 1-way ANOVA with Dunnett's Multiple Comparison Test, was done using GraphPad Prism (GraphPad Software, La Jolla, CA).” left out

MMP-3 = assay: Western blot of MMP-3 protein expression in LPS-induced HGF-1 cells; format: cell-based, human
Description: as §1, §2, §3, §4, §5
HGF-1 cells were treated with lipopolysaccharide (LPS, 5 μg/mL) from P. gingivalis in order to reproduce the type of inflammatory response seen in chronic periodontitis.
as §6

MMP-9 [1] = assay: Western blot of MMP-9 protein expression in LPS-induced HGF-1 cells; format: cell-based, human; settings: FIG. 5
Description: as §1, §2, §3, §4
as §5, with “Statistical analysis, including 1-way ANOVA with Dunnett's Multiple Comparison Test, was done using GraphPad Prism (GraphPad Software, La Jolla, CA).” left out

Human MMP-2; MMP2 = assay: Real time quantitative PCR of MMP-2 gene expression in HGF-1 cells; format: cell-based
Description: (§7) Gene expression of MMPs was evaluated after treatment under different conditions. The tissue culture was washed with PBS. […] All samples were treated with Qiagen DNase (Cat #79254).
(§8) Real time quantitative PCR was performed on an Applied Biosciences StepOne plus instrument and analyzed with StepOne software v2.3. The relative amounts of transcripts from each gene were normalized to reference gene GAPDH and calculated as follows: ΔΔCT=the average ΔCT of […]−the average ΔCT of […], and their fold difference=2^−ΔΔCT as previously described.

MMP-9 [2] = assay: Real time quantitative PCR of MMP-9 gene expression in HGF-1 cells; format: cell-based, human
Description: as §7, §8

Human MMP-13; MMP13 = assay: Real time quantitative PCR of MMP-13 gene expression in HGF-1 cells; format: cell-based
Description: as §7, §8

Human MMP-14; MMP14 = assay: Real time quantitative PCR of MMP-14 gene expression in HGF-1 cells; format: cell-based
Description: as §7, §8

MMPs = assay: Real time quantitative PCR of MMP gene expression (all MMPs tested) in HGF-1 cells; format: cell-based, human
Description: as §7, §8

TNF-α = settings: PBMCs, doses as low as 5 μM; cited from earlier work
[3] = system: toll-like receptors 4 (TLR4); settings: peritoneal and colonic macrophages; cited from earlier work
MyD88 adaptor protein = molecular target: T1, MyD88 adaptor protein (Mus musculus, UniProt P22366); settings: peritoneal and colonic macrophages; cited from earlier work
T1 construct: host or cells: peritoneal and colonic macrophages

TNF-α, IL-1β and IL-6 = settings: peritoneal and colonic macrophages; cited from earlier work
TNF-α and IL-1β = settings: peripheral blood mononuclear cells, PGG alone; cited from earlier work
[4] = HGF-1, LPS + PGG 25 μM (lowest dose tested), 48 hours
[5] = HGF-1, LPS + PGG 50-100 μM, FIG. 6
[6] = HGF-1, LPS 5 μg/mL + PGG 100 μM, p<0.05, n=3

T1 sequence (P22366 whole entry): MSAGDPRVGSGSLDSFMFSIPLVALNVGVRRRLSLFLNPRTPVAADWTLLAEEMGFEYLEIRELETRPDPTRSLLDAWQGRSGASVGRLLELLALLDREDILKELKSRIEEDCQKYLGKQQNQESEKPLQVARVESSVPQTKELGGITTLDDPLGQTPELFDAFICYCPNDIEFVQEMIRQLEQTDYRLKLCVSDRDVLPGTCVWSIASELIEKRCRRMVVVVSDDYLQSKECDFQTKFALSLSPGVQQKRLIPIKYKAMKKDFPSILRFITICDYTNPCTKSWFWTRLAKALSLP

Q: For O=C(OC[C@H]1O[C@@H](OC(=O)c2cc(O)c(O)c(O)c2)[C@H](OC(=O)c2cc(O)c(O)c(O)c2)[C@@H](OC(=O)c2cc(O)c(O)c(O)c2)[C@@H]1OC(=O)c1cc(O)c(O)c(O)c1)c1cc(O)c(O)c(O)c1 [PGG, 1,2,3,4,6-penta-O-galloyl-β-D-glucose], which “MMP-2 protein level after LPS treatment” value (MMP-2; [4]) is on record?
A: The value was “reduction of these three MMPs to basal levels of production”.

Q: What about the “MMP-2 levels compared to healthy control” value (MMP-2; HGF-1, PGG 100 μM, FIG. 1) of the same molecule?
A: Its value is “reduced significantly; also recorded: lower than in healthy controls”.

Q: What about the “MMP-2 expression compared to healthy controls” value (MMP-2; HGF-1, simultaneously treated with LPS and increasing PGG concentrations, FIG. 1) of the same molecule?
A: Its value is “not significantly different than in healthy controls”.

Q: What about the “MMP-13 protein level after LPS treatment” value (MMP-13; [4]) of the same molecule?
A: The value was “reduction of these three MMPs to basal levels of production”.

Q: And the “MMP-13 expression in the PGG treated groups” value (MMP-13; HGF-1, LPS + PGG, FIG. 2)?
A: Its value is “not significantly different than the healthy controls; also recorded: prevented upregulation of MMP-13 in a dose-dependent manner”.

Q: And the “MMP-14 expression in the PGG treated groups” value (MMP-14; HGF-1, LPS 5 μg/mL + PGG, 48 hour, FIG. 3)?
A: Its value is “not significantly different than the healthy controls; also recorded: not significantly different from healthy controls”.

Q: And the “MMP-14 protein level after LPS treatment” value (MMP-14; [4])?
A: The value was “reduction of these three MMPs to basal levels of production”.

Q: And the MMP-3 protein level (MMP-3; HGF-1, LPS 5 μg/mL + PGG 25 μM, FIG. 4)?
A: The MMP-3 protein level was “comparable to healthy control values”.

Q: What about the MMP-3 protein level (MMP-3; HGF-1, LPS 5 μg/mL + PGG 50 and 100 μM, p<0.001, FIG. 4) of the same molecule?
A: Its MMP-3 protein level is “further reduced MMP-3 to levels below basal production”.

Q: And the “MMP-9 protein level compared to LPS inflammatory control” value (MMP-9 [1]; HGF-1, LPS 5 μg/mL + PGG at a dose lower than 50 μM)?
A: The value was “decreased the MMP-9 level”.

Q: And the “MMP-9 protein level, return to normal levels” value (MMP-9 [1]; HGF-1, LPS 5 μg/mL + PGG)?
A: Its value is “did not return to normal levels until it was treated with at least 50 μM PGG”.

Q: What about the MMP-2 gene expression (Human MMP-2; MMP2; HGF-1, LPS 5 μg/mL + PGG 100 μM, p<0.01, n=3, FIG. 6) of the same molecule?
A: The MMP-2 gene expression was “decreased the expression of MMP-2 compared to treatment with PGG 25-50 μM, yet expression was still higher compared with healthy HGF-1”.

Q: And the “MMP-2 gene expression compared with LPS induction with or without PGG 25 μM” value (Human MMP-2; MMP2; [5])?
A: The value was “reduced MMP-2, MMP-9, MMP-13, and MMP-14 expression”.

Q: And the “MMP-9 gene expression compared with induction with LPS alone” value (MMP-9 [2]; [6])?
A: Its value is “significantly reduced the expression of MMP-9, MMP-13 and MMP-14”.

Q: And the “MMP-9 gene expression compared with LPS induction with or without PGG 25 μM” value (MMP-9 [2]; [5])?
A: Its value is “reduced MMP-2, MMP-9, MMP-13, and MMP-14 expression”.

Q: And the “MMP-13 gene expression compared with induction with LPS alone” value (Human MMP-13; MMP13; [6])?
A: The value was “significantly reduced the expression of MMP-9, MMP-13 and MMP-14”.

Q: And the “MMP-13 gene expression compared with LPS induction with or without PGG 25 μM” value (Human MMP-13; MMP13; [5])?
A: The value was “reduced MMP-2, MMP-9, MMP-13, and MMP-14 expression”.

Q: What about the “MMP-14 gene expression compared with induction with LPS alone” value (Human MMP-14; MMP14; [6]) of the same molecule?
A: The value was “significantly reduced the expression of MMP-9, MMP-13 and MMP-14”.

Q: And the “MMP-14 gene expression compared with LPS induction with or without PGG 25 μM” value (Human MMP-14; MMP14; [5])?
A: The value was “reduced MMP-2, MMP-9, MMP-13, and MMP-14 expression”.

Q: And the MMP gene expression (MMPs; HGF-1, LPS 5 μg/mL + PGG 25 μM, FIG. 6)?
A: The MMP gene expression was “did not vary gene expression in a significant manner”.

Q: And the MPP gene expression (MMPs; healthy HGF-1 (no LPS), PGG 100 μM)?
A: Its MPP gene expression is “did not significantly change”.

Q: What about the “suppression of LPS-induced TNF-α production” value (TNF-α) of the same molecule?
A: Its value is no more than 90%.

Q: And the “interference with the binding of LPS to TLR4” value [3]?
A: Its value is “did not interfere”.

Q: And the “interaction with MyD88 adaptor protein” value (MyD88 adaptor protein)?
A: The value was “interacted directly”.

Q: And the “production of TNF-α, IL-1β and IL-6” value (TNF-α, IL-1β and IL-6)?
A: Its value is “decreasing the production”.

Q: What about the “cytokine production of PBMCs on treatment with PGG” value (TNF-α and IL-1β) of the same molecule?
A: Its value is “resulted in the production of TNF-α and IL-1β”.

Q: What does the source list for COc1cc(/C=C/C(=O)CC(=O)/C=C/c2ccc(O)c(OC)c2)ccc1O [curcumin, reference compound]?
A: MMP-2 production (MMP-2): not significantly different that the untreated HGF-1; MMP-2 production (MMP-2; listed as Curcumin): decreased MMP-2 production; MMP-2 expression (MMP-2; HGF-1 treated with Curcumin 10 μM alone (no LPS), p>0.05, n=3): not significantly different from untreated HGF-1; MMP-3 production (MMP-3; HGF-1, LPS 5 μg/mL + curcumin 2.5, 5 and 10 μM, FIG. 16): decreased MMP-3 production
